Laboratory results: PubChem BioAssay (NCI)
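Grown in 96-well plates, cells were treated for 48 hours with each compound at five concentrations. Insufficient inhibition: endpoint recorded as highest concentration tested. The concentration for 50% growth inhibition is given as GI50. The concentration for full growth arrest is given as TGI.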

Legend:
Experiment in all cases: growth of human tumour cells (NCI), 48 h
OVCAR-3 ovarian = tested on: OVCAR-3 ovarian
SW-620 colon = tested on: SW-620 colon
EKVX NSCLC = tested on: EKVX NSCLC
CAKI-1 renal = tested on: CAKI-1 renal
NCI/ADR-RES ovarian = tested on: NCI/ADR-RES ovarian
DU-145 prostate = tested on: DU-145 prostate
HOP-62 NSCLC = tested on: HOP-62 NSCLC
ACHN renal = tested on: ACHN renal
SF-268 CNS = tested on: SF-268 CNS
OVCAR-5 ovarian = tested on: OVCAR-5 ovarian
RPMI-8226 leukemia = tested on: RPMI-8226 leukemia
SF-539 CNS = tested on: SF-539 CNS
SNB-75 CNS = tested on: SNB-75 CNS
HOP-92 NSCLC = tested on: HOP-92 NSCLC
SK-MEL-5 melanoma = tested on: SK-MEL-5 melanoma
SN12C renal = tested on: SN12C renal
SNB-19 CNS = tested on: SNB-19 CNS
A549 NSCLC = tested on: A549 NSCLC
UO-31 renal = tested on: UO-31 renal
NCI-H226 lung = tested on: NCI-H226 lung
UACC-257 melanoma = tested on: UACC-257 melanoma
HCT-15 colon = tested on: HCT-15 colon
786-0 renal = tested on: 786-0 renal
KM12 colon = tested on: KM12 colon
U251 CNS = tested on: U251 CNS
SK-MEL-2 melanoma = tested on: SK-MEL-2 melanoma
SR leukemia = tested on: SR leukemia
OVCAR-8 ovarian = tested on: OVCAR-8 ovarian
MDA-MB-231 breast = tested on: MDA-MB-231 breast
A498 renal = tested on: A498 renal
IGROV1 ovarian = tested on: IGROV1 ovarian
HCT-116 colon = tested on: HCT-116 colon
HS 578T breast = tested on: HS 578T breast
RXF 393 renal = tested on: RXF 393 renal
M14 melanoma = tested on: M14 melanoma
NCI-H522 lung = tested on: NCI-H522 lung
NCI-H23 lung = tested on: NCI-H23 lung
HT29 colon = tested on: HT29 colon
HL-60(TB) leukemia = tested on: HL-60(TB) leukemia
PC-3 prostate = tested on: PC-3 prostate
SK-OV-3 ovarian = tested on: SK-OV-3 ovarian
CCRF-CEM leukemia = tested on: CCRF-CEM leukemia
MCF7 breast = tested on: MCF7 breast
MOLT-4 leukemia = tested on: MOLT-4 leukemia
NCI-H460 lung = tested on: NCI-H460 lung
MALME-3M melanoma = tested on: MALME-3M melanoma
COLO 205 colon = tested on: COLO 205 colon
TK-10 renal = tested on: TK-10 renal
SF-295 CNS = tested on: SF-295 CNS
LOX IMVI melanoma = tested on: LOX IMVI melanoma
SK-MEL-28 melanoma = tested on: SK-MEL-28 melanoma
K-562 leukemia = tested on: K-562 leukemia
HCC-2998 colon = tested on: HCC-2998 colon
OVCAR-4 ovarian = tested on: OVCAR-4 ovarian
BT-549 breast = tested on: BT-549 breast
UACC-62 melanoma = tested on: UACC-62 melanoma
MDA-MB-435 = tested on: MDA-MB-435

COc1cccc2cc(N(C)c3ncnc4ccccc34)ccc12 showed a GI50 (OVCAR-3 ovarian) of under 10 nM, a TGI (OVCAR-3 ovarian) of under 10.7 nM and a GI50 (SW-620 colon) of under 10 nM. For the same compound, the TGI (SW-620 colon) was 17.6 µM, the GI50 (EKVX NSCLC) was 77.2 nM and the TGI (EKVX NSCLC) was 13.6 µM. The GI50 (CAKI-1 renal) was under 10 nM, the TGI (CAKI-1 renal) was 12.3 µM and the GI50 (NCI/ADR-RES ovarian) was under 10 nM. It also gave a TGI (NCI/ADR-RES ovarian) of 629 nM, a GI50 (DU-145 prostate) of under 10 nM and a TGI (DU-145 prostate) of 10.4 µM. For the same compound, the GI50 (HOP-62 NSCLC) was under 10 nM, the TGI (HOP-62 NSCLC) was 15.4 µM and the GI50 (ACHN renal) was under 10 nM. It also gave a TGI (ACHN renal) of 7.52 µM, a GI50 (SF-268 CNS) of 22.1 nM and a TGI (SF-268 CNS) of 14.1 µM. It also gave a GI50 (OVCAR-5 ovarian) of 31.9 nM, a TGI (OVCAR-5 ovarian) of 17.4 µM and a TGI (RPMI-8226 leukemia) of 4.99 µM. For the same compound, the GI50 (SF-539 CNS) was under 10 nM, the GI50 (SNB-75 CNS) was under 10.5 nM and the TGI (SNB-75 CNS) was 13 µM. The GI50 (HOP-92 NSCLC) was under 10 nM, the TGI (HOP-92 NSCLC) was 1.03 µM and the GI50 (SK-MEL-5 melanoma) was under 10 nM. The TGI (SK-MEL-5 melanoma) was 37.4 nM, the GI50 (SN12C renal) was under 15.9 nM and the TGI (SN12C renal) was 13.3 µM. The GI50 (SNB-19 CNS) was under 13.2 nM, the TGI (SNB-19 CNS) was 18.4 µM and the GI50 (A549 NSCLC) was under 10 nM. The TGI (A549 NSCLC) was 9.11 µM, the GI50 (UO-31 renal) was under 28.7 nM and the TGI (UO-31 renal) was 13.8 µM. It also gave a GI50 (NCI-H226 lung) of under 10 nM, a TGI (NCI-H226 lung) of 827 nM and a GI50 (UACC-257 melanoma) of 283 nM. The TGI (UACC-257 melanoma) was 10.6 µM, the GI50 (HCT-15 colon) was under 10 nM and the TGI (HCT-15 colon) was 12.8 µM. The GI50 (786-0 renal) was under 16.7 nM, the TGI (786-0 renal) was 5.9 µM and the GI50 (KM12 colon) was under 10 nM. The TGI (KM12 colon) was 1070 nM, the GI50 (U251 CNS) was under 10 nM and the TGI (U251 CNS) was 11.6 µM. It also gave a GI50 (SK-MEL-2 melanoma) of 142 nM, a TGI (SK-MEL-2 melanoma) of 14.4 µM and a GI50 (SR leukemia) of under 10 nM. The TGI (SR leukemia) was 24.8 µM, the GI50 (OVCAR-8 ovarian) was 17.2 nM and the TGI (OVCAR-8 ovarian) was 32.6 µM. For the same compound, the GI50 (MDA-MB-231 breast) was 25 nM, the TGI (MDA-MB-231 breast) was 13 µM and the GI50 (A498 renal) was under 10 nM. For the same compound, the TGI (A498 renal) was 11 µM, the GI50 (IGROV1 ovarian) was under 10 nM and the TGI (IGROV1 ovarian) was 12.2 µM. The GI50 (HCT-116 colon) was under 10 nM, the TGI (HCT-116 colon) was 521 nM and the GI50 (HS 578T breast) was under 10 nM. The TGI (HS 578T breast) was 20.4 µM, the GI50 (RXF 393 renal) was under 10 nM and the TGI (RXF 393 renal) was 20 µM. The GI50 (M14 melanoma) was under 10 nM, the TGI (M14 melanoma) was 13.7 µM and the GI50 (NCI-H522 lung) was under 10 nM. The TGI (NCI-H522 lung) was 3.12 µM, the GI50 (NCI-H23 lung) was under 15.6 nM and the TGI (NCI-H23 lung) was 6.26 µM. The GI50 (HT29 colon) was under 10 nM, the TGI (HT29 colon) was 11.8 µM and the GI50 (HL-60(TB) leukemia) was under 10 nM. For the same compound, the TGI (HL-60(TB) leukemia) was 48.6 nM, the GI50 (PC-3 prostate) was under 10 nM and the TGI (PC-3 prostate) was 15.6 µM. For the same compound, the GI50 (SK-OV-3 ovarian) was under 10 nM, the TGI (SK-OV-3 ovarian) was 18.4 µM and the GI50 (CCRF-CEM leukemia) was under 14.7 nM. The TGI (CCRF-CEM leukemia) was 17.8 µM, the GI50 (MCF7 breast) was under 10 nM and the TGI (MCF7 breast) was 12.3 µM. The GI50 (MOLT-4 leukemia) was 23.7 nM, the TGI (MOLT-4 leukemia) was 15.2 µM and the GI50 (NCI-H460 lung) was under 10 nM. It also gave a TGI (NCI-H460 lung) of 10.8 µM, a GI50 (MALME-3M melanoma) of under 48.4 nM and a TGI (MALME-3M melanoma) of 10.1 µM. The GI50 (COLO 205 colon) was under 10 nM, the TGI (COLO 205 colon) was 65.9 nM and the TGI (TK-10 renal) was 16.9 µM. It also gave a GI50 (SF-295 CNS) of under 10 nM, a TGI (SF-295 CNS) of 11.4 µM and a GI50 (LOX IMVI melanoma) of under 12.3 nM. The TGI (LOX IMVI melanoma) was 13.5 µM, the GI50 (SK-MEL-28 melanoma) was 1350 nM and the TGI (SK-MEL-28 melanoma) was 13.8 µM. The GI50 (K-562 leukemia) was under 10 nM, the TGI (K-562 leukemia) was 25.1 µM and the GI50 (HCC-2998 colon) was 21.1 nM. The TGI (HCC-2998 colon) was 5.43 µM, the GI50 (OVCAR-4 ovarian) was under 16.1 nM and the TGI (OVCAR-4 ovarian) was 13.5 µM. For the same compound, the GI50 (BT-549 breast) was 18.5 nM and the TGI (BT-549 breast) was 6.64 µM.
With COc1ccc(NC(=S)N/N=C/c2c(C)n(C)n(-c3ccccc3)c2=O)cc1 the TGI (SW-620 colon) was over 100 µM, the TGI (EKVX NSCLC) was over 100 µM and the TGI (CAKI-1 renal) was 51.8 µM. It also gave a TGI (NCI/ADR-RES ovarian) of over 100000 nM, a TGI (HOP-62 NSCLC) of 41.7 µM and a TGI (ACHN renal) of over 100 µM. It also gave a TGI (SF-268 CNS) of 70.7 µM, a TGI (RPMI-8226 leukemia) of over 100 µM and a TGI (SF-539 CNS) of 59.4 µM. The TGI (SNB-75 CNS) was 84.3 µM, the TGI (HOP-92 NSCLC) was 65.4 µM and the TGI (SK-MEL-5 melanoma) was over 100000 nM. It also gave a TGI (SNB-19 CNS) of 46.2 µM, a TGI (UO-31 renal) of over 100 µM and a TGI (NCI-H226 lung) of over 100000 nM. For the same compound, the TGI (UACC-257 melanoma) was over 100 µM, the TGI (HCT-15 colon) was over 100 µM and the TGI (786-0 renal) was 60.4 µM. The TGI (KM12 colon) was over 100000 nM, the TGI (U251 CNS) was 51.7 µM and the TGI (SK-MEL-2 melanoma) was over 100 µM. The TGI (SR leukemia) was over 100 µM, the TGI (OVCAR-8 ovarian) was 55.7 µM and the TGI (MDA-MB-231 breast) was 62.6 µM. It also gave a TGI (A498 renal) of 49.8 µM, a TGI (IGROV1 ovarian) of over 100 µM and a TGI (HCT-116 colon) of over 100000 nM. The TGI (HS 578T breast) was 70.3 µM, the TGI (RXF 393 renal) was 56.6 µM and the TGI (M14 melanoma) was over 100 µM. It also gave a TGI (NCI-H23 lung) of over 100 µM, a TGI (HT29 colon) of over 100 µM and a TGI (HL-60(TB) leukemia) of over 100000 nM. It also gave a TGI (PC-3 prostate) of over 100 µM, a TGI (SK-OV-3 ovarian) of 82.6 µM and a TGI (CCRF-CEM leukemia) of over 100 µM. For the same compound, the TGI (MCF7 breast) was over 100 µM, the TGI (UACC-62 melanoma) was over 100 µM and the TGI (MOLT-4 leukemia) was over 100 µM. The TGI (MDA-MB-435) was over 100 µM, the TGI (COLO 205 colon) was over 100000 nM and the TGI (TK-10 renal) was over 100 µM. For the same compound, the TGI (SF-295 CNS) was over 100 µM, the TGI (LOX IMVI melanoma) was over 100 µM and the TGI (SK-MEL-28 melanoma) was over 100 µM. The TGI (K-562 leukemia) was over 100 µM, the TGI (HCC-2998 colon) was over 100 µM and the TGI (OVCAR-4 ovarian) was 39.8 µM. The TGI (BT-549 breast) was over 100 µM.
